Measurements as given in US9198855B2, “Veterinary dermatologic composition” (Dermaconcept JMC, priority 2001, dated 2015).
≈ marks a conversion by molar mass, not a printed value.

How the values were obtained:
Candida albicans = settings: inflammated, depilated guinea pig skin; cited from earlier work
Staphylococcus aureus = settings: inflammated, depilated guinea pig skin; cited from earlier work
[1] = tested on: Staphylococcus Intermedius; assay: Multiplication of Staphylococcus Intermedius cultures, doses 0-100 ppm in usual culture environment without solubilising agent; assay type: cell-based; settings: for concentration completely inhibiting multiplication of Staphylococcus Intermedius cultures: complete inhibition; for concentration partly inhibiting multiplication of Staphylococcus Intermedius cultures: partial inhibition
Description: (§1) The minimum inhibitory concentration in case of Malassezia pachyadermatis was 25 ppm. Experiments were carried out using doses of 0, 5, 10, 25, 50 and 100 ppm of phytosphingosin and its hydrochloric acid salt on Staphylococcus Intermedius in usual culture environment without solubilising agent.

[2] = tested on: Malassezia pachyadermatis; assay: In-vitro mycological study, minimum inhibitory concentration; assay type: cell-based, Malassezia pachydermatis
Description: as §1
However the effect is not limited to cats and dogs but extends to other furry animals, such as horses, rabbits, […]

| MIC ([2]; Malassezia pachyadermatis) [µg/mL] | SMILES | activity against Candida albicans (Candida albicans) | activity against Staphylococcus aureus (Staphylococcus aureus) | concentration completely inhibiting multiplication of Staphylococcus Intermedius cultures [1] [ppm] | concentration partly inhibiting multiplication of Staphylococcus Intermedius cultures [1] [ppm] | anti-fungal action against Malassezia pachydermatis ([2]; in-vitro mycological studies) |
| --- | --- | --- | --- | --- | --- | --- |
|  | CCCCCCCCCCCCC/C=C/[C@@H](O)[C@@H](N)CO [Sphingosin, sphingosin] | little effect | little effect |  |  |  |
|  | CCCCCCCCCCCCCC[C@@H](O)[C@@H](O)[C@@H](N)CO.Cl [phytosphingosin hydrochloric acid salt, Phytosphingosin hydrochloric acid] |  |  | 10 | 5 |  |
| 25 (≈ 78.7 µM) | CCCCCCCCCCCCCC[C@@H](O)[C@@H](O)[C@@H](N)CO [phytosphingosin] |  |  | 10 | 5 | anti-fungal action |
|  | CCCCCCCCCCCCCCC[C@@H](O)[C@@H](N)CO [sphinganin] | effective | effective |  |  |  |
